In ChEMBL document CHEMBL2074210, “A novel human organic anion transporting polypeptide localized to the basolateral hepatocyte membrane” (Am J Physiol Gastrointest Liver Physiol, 2000):

How the values were obtained:
Assay type in all cases: functional, cell-based
[1] = biological target: T1, OATP-C (OATP1B1, SLCO1B1) (Homo sapiens, UniProt Q9Y6L6); assay: TP_TRANSPORTER: inhibition of E217betaG uptake (DIDS: 50 uM, E217betaG: 1 uM) in OATP-C-expressing HEK293 cells; design: scale not given: the % may be the effect or the level left; details: probe E217betaG (estradiol 17beta-glucuronide), read-out: Activity
T1 sequence (Q9Y6L6 whole entry): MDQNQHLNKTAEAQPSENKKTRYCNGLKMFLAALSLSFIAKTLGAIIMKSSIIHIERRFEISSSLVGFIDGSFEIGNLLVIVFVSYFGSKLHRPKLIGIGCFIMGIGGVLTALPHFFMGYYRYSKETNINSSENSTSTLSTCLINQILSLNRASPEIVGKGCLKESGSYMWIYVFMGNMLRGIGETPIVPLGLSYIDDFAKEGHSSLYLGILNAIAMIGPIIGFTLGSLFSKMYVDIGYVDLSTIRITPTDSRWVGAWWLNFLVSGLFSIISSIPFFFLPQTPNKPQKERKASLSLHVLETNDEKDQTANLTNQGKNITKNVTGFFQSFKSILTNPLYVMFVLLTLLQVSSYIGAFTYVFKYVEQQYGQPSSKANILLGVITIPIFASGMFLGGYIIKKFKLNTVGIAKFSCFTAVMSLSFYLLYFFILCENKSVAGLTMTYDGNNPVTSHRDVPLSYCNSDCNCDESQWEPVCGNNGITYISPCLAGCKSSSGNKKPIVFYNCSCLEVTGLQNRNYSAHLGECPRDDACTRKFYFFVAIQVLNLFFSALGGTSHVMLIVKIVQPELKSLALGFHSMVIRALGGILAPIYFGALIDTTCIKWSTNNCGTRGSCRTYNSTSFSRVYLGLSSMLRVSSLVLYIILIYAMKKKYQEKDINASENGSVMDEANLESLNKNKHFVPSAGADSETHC

[2] = biological target: T2, Solute carrier organic anion transporter family member 1B1 (Homo sapiens, UniProt Q9Y6L6); assay: (§1) TP_TRANSPORTER: uptake in OATP-C-expressing HEK293 cells
T2 sequence (Q9Y6L6 whole entry): T1 sequence (Q9Y6L6 whole entry)

[3] = biological target: T2, Solute carrier organic anion transporter family member 1B1; assay: TP_TRANSPORTER: inhibition of E217betaG uptake in OATP-C-expressing HEK293 cells
[4] = substrate: C[C@]12CC[C@@H]3c4ccc(O)cc4CC[C@H]3[C@@H]1CC[C@@H]2O[C@@H]1O[C@H](C(=O)O)[C@@H](O)[C@H](O)[C@H]1O; assay: as §1

O=S(=O)(O)c1cc(N=C=S)ccc1/C=C/c1ccc(NC=S)cc1S(=O)(=O)O
activity at 50 µM [1]: 6%

C=CC1=C(C)/C(=C/c2[nH]c(Cc3[nH]c(/C=C4\NC(=O)C(C)=C4C=C)c(C)c3CCC(=O)O[C@@H]3OC(C(=O)O)[C@@H](O)C(O)C3O)c(CCC(=O)O)c2C)NC1=O (some centres undefined) [BILIRUBIN MONOGLUCURONIDE]
Activity [2]: substrate [+]

O=C1OC(c2ccc(O)c(S(=O)(=O)O)c2)(c2ccc(O)c(S(=O)(=O)O)c2)c2c(Br)c(Br)c(Br)c(Br)c21 [SULFOBROMOPHTHALEIN SODIUM]
Ki [3]: 44 nM

B1: Solute carrier organic anion transporter family member 1B1 (Homo sapiens) (protein)
chain: T1 sequence (Q9Y6L6 whole entry)
Km [4]: 8.2 µM
